Measurements published in patent US6451835B1, “Pesticidal fluoroethyl pyrazole derivatives” (Uniroyal Chemical Company, Inc., priority 2001, dated 2002).

Tests used:
Assay type in all cases: in vivo
Tefranychus urticae Koch = test: Mite adulticide test (MI); settings: 1000 ppm spray to run off on cowpea leaves; adult mites added 1 day after treatment, read five days later
Method: (§1) Stock solutions of each of the compounds were prepared at 1000 ppm by dissolving 0.08 gram of each compound to be tested in 8 mL of acetone and adding 72 mL of distilled water plus 3 drops of ethoxylated sorbitan monolaurate, a wetting agent. […] For each example that follows, these stock solutions were used and the specified dilutions made. All the tests discussed below, which involved treatment with compounds of this invention, were always repeated with controls to permit a comparison upon which the percent control was calculated. One day before treatment of cowpea primary leaves with the test solutions, a “FIG. 8” configuration of tree tanglefoot was applied to each of two cowpea primary leaves, one from each of two plants in a pot. In each “Figure”, the circle nearer the stem was designated for the mite ovicide test and the circle farther from the stem was designated for the mite adulticide test. Groups of adult mites (Tefranychus urticae Koch) were transferred into ovicide circles one day before treatment and the females were allowed to deposit eggs until one hour before treatment, at which point all the adults were removed. The plants were then sprayed to run off with each 1000 ppm stock solution of Example 2. One day following treatment of the plants with the test solution, groups of approximately 25 adult mites were transferred into the adulticide rings. Five days later, these rings were examined for live mites remaining on the leaves. The percent control was estimated based on the number of mites surviving on the control plants. Nine days following treatment the ovicide rings were examined for unhatched eggs and living immature mites. The percent control was estimated based on the number of unhatched eggs.

[1] = system: Southern Corn Rootworm (Diabrotica undecimpuncatat); test: Southern corn rootworm test (CR); settings: 100 ppm test solution, corn seedlings on filter paper; second instar larvae; after five days; corrected by Abbott's formula
Method: Stock solutions of each of the compounds were prepared at 1000 ppm by dissolving 0.08 gram of each compound to be tested in 8 mL of acetone and adding 72 mL of distilled water plus 3 drops of ethoxylated sorbitan monolaurate, a wetting agent. […] For each example that follows, these stock solutions were used and the specified dilutions made. All the tests discussed below, which involved treatment with compounds of this invention, were always repeated with controls to permit a comparison upon which the percent control was calculated. One thousand ppm of each stock solution of Example 2 was diluted to 100 ppm (the “test solution”). For each compound, 2.5 mL of each test solution was pipetted onto a filter paper (Whatman #3) at the bottom of a 100 mm petri dish. Two corn seedlings were soaked in the 100 ppm solution for one hour and transferred to the petri dish containing the same test solution. After 24 hours, each dish was loaded with 5 second instar larvae of Southern Corn Rootworm (Diabrotica undecimpuncatat). After five days, the number of live larvae was noted and the percent control, corrected by Abbott's formula, was calculated.

[2] = system: root knot nematode (Meloidogmne incognita); test: Nematode test (NE); settings: soil drench, soil concentration of 50 ppm; tomato seedling roots evaluated for galls nineteen days after planting
Method: Stock solutions of each of the compounds were prepared at 1000 ppm by dissolving 0.08 gram of each compound to be tested in 8 mL of acetone and adding 72 mL of distilled water plus 3 drops of ethoxylated sorbitan monolaurate, a wetting agent. […] For each example that follows, these stock solutions were used and the specified dilutions made. All the tests discussed below, which involved treatment with compounds of this invention, were always repeated with controls to permit a comparison upon which the percent control was calculated. One thousand ppm of each stock solution of Example 2 was used for this test. For each test solution, 25 mL was drenched onto separate 500 gram samples of soil infested with root knot nematode (Meloidogmne incognita) eggs in a pot, for a soil concentration of 50 ppm. One day after treatment, two tomato seedlings were planted in each pot. Nineteen days after planting, the roots were evaluated for the presence of knots or galls, and the percent control was estimated on the infestation levels in check plants.

[3] = system: Tefranychus urticae Koch eggs; test: Mite ovicide test (MIOV); settings: 1000 ppm spray to run off on cowpea leaves; unhatched eggs read nine days following treatment
Method: as §1

[4] = system: Helicoverpa virescens larva; test: Tobacco budworm test (TB); settings: 0.2 mL of 1000 ppm stock solution on diet cell surface; second instar larva; after 14 days; corrected by Abbott's formula
Method: (§2) Stock solutions of each of the compounds were prepared at 1000 ppm by dissolving 0.08 gram of each compound to be tested in 8 mL of acetone and adding 72 mL of distilled water plus 3 drops of ethoxylated sorbitan monolaurate, a wetting agent. […] For each example that follows, these stock solutions were used and the specified dilutions made. All the tests discussed below, which involved treatment with compounds of this invention, were always repeated with controls to permit a comparison upon which the percent control was calculated.
For each compound tested, 0.2 mL of each stock solution of Example 2 was pipetted onto the surfaces of each of five diet cells, allowed to spread over the surfaces, and air dried for two hours. Then, a second instar Helicoverpa virescens larva was introduced into each cell. After 14 days, the number of living larvae was determined for each treatment and percent control, corrected by Abbott's formula (J. Econ. Entomology (1925, 265-267), was calculated. The results of the testing of tobacco budworms (TB) are presented in Table 2.

[5] = system: rice delphacids, Sogatodes orizicola; test: Rice planthopper foliar test (RPH); settings: 1000 ppm spray on rice seedlings; adults added 1 day after treatment, counted five days after transferring
Method: as §2
One thousand ppm of each stock solution of Example 2 was used for this test. One pot containing approximately 20 rice seedlings was treated with each formulation by spraying with a spray atomizer. One day after treatment, plants were covered with a tubular cage and 20 adult rice delphacids, Sogatodes orizicola, were transferred into each cage. Five days after transferring, counts were made of the surviving planthoppers in each pot and percent control was estimated.

Row | SMILES | Percent Control MI (Tefranychus urticae Koch) [%] | Percent Control CR [1] [%] | Percent Control NE [2] [%] | Percent Control MIOV [3] [%] | Percent Control TB [4] [%] | Percent Control RPH [5] [%]
1 | FCCC1(c2ccccc2)C=NNC1 (stereo not drawn) [Compound 1, 4-(2-fluoroethyl)-4-phenyl-1H-pyrazole] | 0 | 0 | 50 | 100 | 20 | 20
2 | FCCn1cc(-c2ccc(C(F)(F)F)cc2)cn1 [Compound 3] | 0 | 100 | 0 | 0 | 100 | 0
3 | FCCn1cc(-c2cccc(Br)c2)cn1 [Compound 4] | 100 | 0 | 100 | 100 | 7 | 0
4 | FCCn1cc(-c2ccc(Cl)c(Cl)c2)cn1 [Compound 5] | 100 | 63 | 60 | 100 | 0 | 0
5 | FCCn1cc(-c2ccc(Cl)cc2)cn1 [Compound 2] | 100 | 100 | 100 | 100 | 40 | 0
6 | FCCn1cc(-c2cccc(C(F)(F)F)c2)cn1 [Compound 6] | 0 | 100 | 100 | 100 | 0 | 85
7 | FCCn1cc(-c2ccc(OC(F)(F)F)cc2)cn1 [Compound 7] | 0 | 100 | 100 | 100 | 0 | 85
